Source: US8700113B2, “Sensor for detection of carbohydrate” (Medtronic Minimed, Inc., priority 2004, dated 2014)

What was measured:
MBL [1] = target: T1, MBL (Homo sapiens, UniProt P11226); assay: Affinity of common carbohydrate moieties for MBL; assay type: binding; conditions: for affinity for MBL, rank order of common carbohydrate moieties: value = moieties ranked next below (>) or above (<)
[2] = Comparison of stability of MBL and Con A in glucose assay
Method: Example 5 was repeated using MBL-AF594 and ConA-AF594 as lectin with 110 kDa HMCV1-dextran as analyte analogue in physiological TRIS buffer (pH 7.4, sodium, potassium and calcium present in physiological concentrations). […] Measurements were taken at 5 minute intervals using a miniaturized time resolved fluorimeter.

MBL [3] = target: T1, MBL; conditions: cited from earlier work

T1 sequence (P11226 21-248, species assumed): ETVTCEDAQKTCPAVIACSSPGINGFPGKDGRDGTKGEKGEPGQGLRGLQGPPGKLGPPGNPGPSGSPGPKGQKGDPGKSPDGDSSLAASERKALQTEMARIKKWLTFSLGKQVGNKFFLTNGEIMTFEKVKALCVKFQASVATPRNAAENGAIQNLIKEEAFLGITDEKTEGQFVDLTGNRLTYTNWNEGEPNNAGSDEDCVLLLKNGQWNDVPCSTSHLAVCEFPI

affinity for MBL, rank order of common carbohydrate moieties (MBL [1]) | Compound | further results
> D-lyxose | O=C[C@@H](O)[C@H](O)[C@H](O)CO [D-arabinose] | –
D-lyxose | O=C[C@H](O)[C@@H](O)[C@@H](O)[C@H](O)CO [D-galactose] | affinity / binding to MBL in words (MBL [1]): very low affinity
> D-lyxose | O=C[C@H](O)[C@@H](O)[C@H](O)[C@H](O)CO [D-glucose] | affinity / binding to MBL in words (MBL [1]): high affinity
> lactose, L-arabinose, D-galactose | O=C[C@@H](O)[C@@H](O)[C@H](O)CO [D-lyxose] | –
> D-lyxose | OC[C@H]1O[C@H](OC[C@H]2OC(O)(CO)[C@@H](O)[C@@H]2O)[C@H](O)[C@@H](O)[C@@H]1O (stereo partly drawn) [D-palatinose] | –
> D-lyxose | O=C[C@H](O)[C@H](O)[C@H](O)CO [D-ribose] | –
> D-lyxose | OC[C@@H](O)[C@@H](O)[C@H](O)[C@@H](O)CO [D-sorbitol] | –
> D-lyxose | O=C(CO)[C@@H](O)[C@@H](O)[C@H](O)CO [D-tagatose] | –
D-lyxose | O=C[C@H](O)[C@@H](O)[C@@H](O)CO [L-arabinose] | –
D-lyxose | OC[C@H]1O[C@@H](O[C@H]2[C@H](O)[C@@H](O)C(O)O[C@@H]2CO)[C@H](O)[C@@H](O)[C@H]1O (stereo partly shown) [lactose] | –
> D-lyxose | O[C@H]1[C@H](O)[C@@H](O)[C@H](O)[C@@H](O)[C@H]1O [myo-inositol] | –
– | Concanavalin A | reduction in the measured phase ([2]; after 20 days, 110 kDa HMCV1-dextran, physiological TRIS buffer pH 7.4): more than 10%; time stable at body temperature ([2]; assay conditions, body temperature): less than 20 days
> D-lyxose | D-turanose | –
– | MBL-AF594: human MBL stained with Alexa Fluor 594 succinimidyl ester, 2.3 dyes per subunit | phase measurements at each glucose level over time ([2]; 110 kDa HMCV1-dextran, physiological TRIS buffer pH 7.4, glucose cycles 2.5-50 mM): constant over time
– | MBL: collagen-like C-type collectin, human MBL | time stable in a glucose assay ([2]; glucose assay): at least 17 days
– | SFGSGFGGGY [keratin peptide, peptide which mimics N-acetyl glucosamine] | inhibition of MBL (MBL [3]): can inhibit MBL

Compound | affinity for MBL, rank order of common carbohydrate moieties (MBL [1]) | further results
O=C[C@@H](O)[C@@H](O)[C@H](O)[C@H](O)CO [D-Mannose] | > myo-inositol, D-glucose, D-arabinose, D-palatinose, D-turanose, D-sorbitol, D-ribose, D-tagatose | affinity / binding to MBL in words (MBL [1]): high affinity
O=C(CO)[C@@H](O)[C@H](O)[C@H](O)CO [D-fructose] | > myo-inositol, D-glucose, D-arabinose, D-palatinose, D-turanose, D-sorbitol, D-ribose, D-tagatose | –
OC[C@H]1O[C@H](O[C@@H]2CO[C@](O)(CO)[C@@H](O)[C@@H]2O)[C@H](O)[C@@H](O)[C@@H]1O [D-leucrose] | > myo-inositol, D-glucose, D-arabinose, D-palatinose, D-turanose, D-sorbitol, D-ribose, D-tagatose | –
C[C@H](O)[C@@H](O)[C@@H](O)[C@H](O)C=O [L-Fucose] | > myo-inositol, D-glucose, D-arabinose, D-palatinose, D-turanose, D-sorbitol, D-ribose, D-tagatose | –
CC(=O)N[C@H]1C(O)O[C@H](CO)[C@@H](O)[C@@H]1O (stereo partly drawn) [N-acetyl-D-glucosamine] | > myo-inositol, D-glucose, D-arabinose, D-palatinose, D-turanose, D-sorbitol, D-ribose, D-tagatose | affinity / binding to MBL in words (MBL [1]): high affinity
CC(=O)N[C@@H]1C(O)O[C@H](CO)[C@@H](O)[C@@H]1O (stereo partly drawn) [N-acetyl-D-mannosamine] | > myo-inositol, D-glucose, D-arabinose, D-palatinose, D-turanose, D-sorbitol, D-ribose, D-tagatose | –
OC[C@H]1O[C@@](CO)(O[C@H]2O[C@H](CO)[C@@H](O[C@H]3O[C@H](CO)[C@@H](O)[C@H](O)[C@H]3O)[C@H](O)[C@H]2O)[C@@H](O)[C@@H]1O [erlose] | > myo-inositol, D-glucose, D-arabinose, D-palatinose, D-turanose, D-sorbitol, D-ribose, D-tagatose | –
